Test results taken from paper PMC8011784, “Chronic peptide-based GIP receptor inhibition exhibits modest glucose metabolic changes in mice when administered either alone or combined with GLP-1 agonism” (PLoS ONE, 2021).

Legend:
Type in all cases: in vivo, mouse
DIO mice [1] = assay: Chronic GIPA-2 study: OGTT in DIO mice; conditions: day 17; oral glucose 2 g/kg one hour after daily dose; liraglutide 0.2 mg/kg SC, GIPA-2 10 mg/kg SC; n = 10
Method: For studying the chronic effects of GIPA-2, male C57BL/6JRj mice (n = 40) were fed a HFD (SSNIFF® diet #12492) for 43 weeks. DIO mice were randomized (n = 10 per group) based on baseline blood glucose and body weight. Liraglutide was dissolved in PBS plus 0.1% BSA (Vehicle1) and GIPA-2 in PBS (vehicle 2). Mice received one of the following four treatments daily for 28 days while still maintained on HFD: (1) vehicle 1 (SC) and vehicle 2 (SC); (2) 0.2 mg/kg liraglutide (SC) and vehicle 2; (3) vehicle 1 (SC) and 10 mg/kg GIPA-2 (SC); and (4) 0.2 mg/kg liraglutide (SC) plus 10 mg/kg GIPA-2 (SC). […] Fasted (4 hrs) blood glucose and insulin were measured on study day -4, 10 and 26. […] Blood glucose was measured before their daily dosing and at 0, 15, 30 60, 120, 180 and 240 min after glucose administration. […] Blood glucose was measured before their daily dosing and at 0, 15, 30 60, 120, 180 min after glucose administration. […]
(§1) Fig 3 Effects of GIPA-1 and GIPA-2 on oral glucose tolerance and insulin responses in DIO mice. […] Statistical analysis was calculated using two-way ANOVA with Tukey’s post-hoc test and one-way ANOVA with Dunnett’s post-hoc test. *: p< 0.05, **: p < 0.01, ***: p < 0.001, ****: p<0.0001 compared to vehicle.

DIO mice [2] = assay: Chronic GIPA-1 study: OGTT and insulin responses in DIO mice; conditions: n = 10
Method: (§2) 23-week-old male C57BL/6JRj mice (n = 40), fed a HFD (SSNIFF® diet #12492[60% fat, 20% protein, 20% carbohydrate]) for 14 weeks, were distributed into 4 test groups and received daily either vehicle, liraglutide (0.2 mg/kg/day), GIPA-1 (~4.5 mg/kg/day) or liraglutide + GIPA-1 for 4 weeks while still maintained on HFD. GIPA-1 was delivered using minipumps in order to achieve sufficient GIPR antagonism based on the properties of this peptide (Fig 2A). Liraglutide was dissolved in phosphate-buffered saline (PBS) plus 0.1% bovine serum albumin (BSA) (vehicle 1) and GIPA-1 in DMSO/propylene glycol (50/50 volume per volume) (vehicle 2). 100 μL minipumps (Alzet) were filled with GIPA-1 (30 mg/mL) or vehicle 2 and kept in 0.9% saline at 37°C overnight. The minipump was placed subcutaneously through a 1-cm long incision in the neck with the animal under isoflurane anesthesia. Animals were treated with analgesics on day 0–3 (NSAID, carprofen 50 mg/kg SC QD). […] Fasted (4 hrs) blood glucose and insulin levels were measured on study day -3, 14 and 27. […] Blood glucose was measured before their daily dosing and at 0, 15, 30 60, 120, 180 min after glucose administration. Plasma insulin was measured at 0 and 15 min. Whole body weight and food intake were measured throughout the study period. […]
as §1

DIO mice [3] = assay: Chronic GIPA-1 study: fasting blood glucose, plasma insulin and HOMA-IR in DIO mice; conditions: 4 h fasted, liraglutide 0.2 mg/kg/day SC, GIPA-1 ~4.5 mg/kg/day minipump, n = 10, vs vehicle
Method: as §2, with “2).” for “2). 100 μL minipumps (Alzet) were filled with GIPA-1 (30 mg/mL) or vehicle 2 and kept in 0.9% saline at 37°C overnight. The minipump was placed subcutaneously through a 1-cm long incision in the neck with the animal under isoflurane anesthesia. Animals were treated with analgesics on day 0–3 (NSAID, carprofen 50 mg/kg SC QD).”
Fasting blood glucose was measured using a BIOSEN c-Line glucose meter (EKF-Diagnostics), insulin was measured using the Meso Scale Diagnostics platform, TG and TC were measured using commercial kits (Roche Diagnostics) on the Cobas C-501 autoanalyzer (Roche), and FFA levels were measured using a Wako Chemicals kit on the Cobas C-501 autoanalyzer, all according to the manufacturers’ instructions. […]

liraglutide
glucose excursion in OGTT (DIO mice [1]): beneficial glucose lowering effects of liraglutide | insulin at time 0 of the OGTT (DIO mice [2]; day 21, fasted, GIPA-1 study): liraglutide-induced decrement in insulin at time 0 of the OGTT | baseline blood glucose (-30 min) of OGTT (DIO mice [2]; day 21, GIPA-1 study): lower in the liraglutide group and in the combination group | glucose excursion in OGTT (DIO mice [2]; day 21, oral glucose 2 g/kg, liraglutide 0.2 mg/kg SC, GIPA-1 ~4.5 mg/kg/day minipump): beneficial glucose lowering effects of liraglutide | fasting blood glucose (DIO mice [3]; days 14 and 27): significant reductions for the duration of the study | fasting plasma insulin (DIO mice [3]): reduced in both the liraglutide and combination groups. This was significant for the combination, but not for liraglutide monotherapy
